# Laboratory results from US20200237742A1, “Serdexmethylphenidate Conjugates, Compositions And Methods Of Use Thereof” (priority 2018, published 2020).
# Structures can show the parent of a compound that is named as a salt.
# System: recreational stimulant abusers
# Assay: Intravenous abuse potential study, VAS pharmacodynamic assessments
# Assay type: in vivo, human
# From the text: “Drug liking” score, used herein, is the score used to assess the degree that a human participant likes a drug effect at the time the question is being asked (that is, at the moment). It is scored using a 0 to 100 point bipolar visual analogue scale (VAS) anchored in the center with a neutral anchor of “neither like nor dislike” (score of 50), on the left with “strong disliking” (score of 0) and on the right with “strong liking” (score of 100).
# “Euphoria” or “Feeling High” score, used herein, is the term to describe the score used to assess the degree that a human participant is high at the time the question is being asked (that is, at the moment). It is scored using a 0 to 100 point unipolar visual analogue scale (VAS) anchored on the left with “Not at All” (score of 0) and on the right with “Extremely” (score of 100).
# “Take Drug Again” score, used herein, is the term to describe the score used to assess the degree that a human participant wants to take the drug again, if given the opportunity, based on his/her opinion now, i.e., at the time the question is being asked. It is scored using a 0 to 100 point unipolar visual analogue scale (VAS) anchored on the left with “Definitely Would Not” (score of 0) and on the right with “Definitely Would” (score of 100).
# “Overall Drug Liking” score, used herein, is the term to describe the score used to assess the human subject's global perception of drug liking (i.e., the subjective effects over the whole course of the drug experience including any carryover effects). Subjects respond to the statement “Overall, my liking for this drug is.” The question is scored using a 0-100 point bipolar VAS anchored on the left with “Strong Disliking” (score of 0); “Neither Like nor Dislike” (score of 50) in the middle, and anchored on the right with “Strong Liking” (score of 100). This scale has the advantage of the human subject being relatively less affected or unaffected by acute study drug effects (if any) by the time of the assessment.
# “Good Effects” score, used herein, is the term to describe the score used to assess the degree that a human participant is feeling good drug effects at the time the question is being asked (that is, at the moment). Subjects respond to the statement “At this moment, I can feel good drug effects.” It is scored using a 0 to 100 point unipolar visual analogue scale (VAS) anchored on the left with “Not at All” (score of 0) and on the right with “Extremely” (score of 100).
# Safety assessments were performed throughout the study.
# [1] = 12 hours, SDX Cl 30 mg, d-MPH HCl 15 mg
# [2] = 12 hours, d-MPH HCl 15 mg vs SDX Cl 30 mg
# [3] = 24 hours, d-MPH HCl 15 mg vs SDX Cl 30 mg
# [4] = Emax, d-MPH HCl 15 mg vs SDX Cl 30 mg
# [5] = d-MPH HCl 15 mg vs SDX Cl 30 mg
smiles,measurement,setting,value
"COC(=O)[C@H](c1ccccc1)[C@H]1CCCCN1 [d-methylphenidate hydrochloride, d-threo-methylphenidate hydrochloride]",Mean Overall Drug Liking,[1],68.0
same,Median Overall Drug Liking,[1],73.0
same,"Mean Difference Take Drug Again, B vs A",[2],43.3
same,"Overall Drug Liking, Median difference B vs A",[2],16.0
same,"Mean Difference Take Drug Again, B vs A",[3],39.2
same,"Overall Drug Liking, Median difference B vs A",[3],13.5
same,"Mean Difference Take Drug Again, B vs A",[4],43.1
same,"Overall Drug Liking, Median difference B vs A",[4],18.0
same,"Feeling High Emax, Median difference B vs A",[5],67.0
same,"Good Effects Emax, Median difference B vs A",[5],73.0
same,"Median Difference Drug Liking Emax, B vs A","d-MPH HCl 15 mg vs SDX Cl 30 mg, bipolar VAS",29.0
